Measurements reported in patent US20250198902A1, “METHOD OF ANALYSING THE MOTIONAL ACTIVITY OF PARTICLES” (RESISTELL AG, priority 2022, published 2025).

Test system: human colon cancer cell line SW480
Assay: nanomotion drug sensitivity testing on cancer cells attached to microcantilever
Format: cell-based
Settings: SW480 cells in DMEM containing 10% FCS; 32 μM doxorubicin in Drug phase vs second Medium phase
Method: In particular, these figures show the variance of the deflection of a microcantilever with attached human colon cancer cell line SW480 measured in cell culture medium and subsequent exposure to inhibitory concentrations of the drug doxorubicin (FIG. 25a) and the variance for cells kept in cell culture medium (FIG. 25b). The doxorubicin susceptible SW480 was cultured under standard laboratory conditions (i.e., cell culture medium (Dulbecco's Modified Eagle Medium (DMEM) containing 10% heat-inactivated fetal calf serum (FCS), 37° C., 5% CO2) in cell culture flasks. In preparation of nanomotion experiments, cells were detached, collected in cell culture medium, and washed in DMEM containing 10% FCS. The cell suspension was used for the attachment to the cantilever, and all nanomotion measurements with the device were performed in DMEM containing 10% FCS. The colon cancer cells were attached to the cantilever. Three phases of signal recording were performed: (i) Blank phase, where the deflections of the bare cantilevers are measured, (ii) the Medium phase, where the deflections of the cantilever with attached SW480 were measured followed by (iii) the Drug phase, where the deflections of the cantilever with attached SW480 after exposure to a drug were recorded or a second Medium phase without doxorubicin. […]

SMILES: COc1cccc2c1C(=O)c1c(O)c3c(c(O)c1C2=O)C[C@@](O)(C(=O)CO)C[C@@H]3O[C@H]1C[C@H](N)[C@H](O)[C@H](C)O1 [doxorubicin]
- variance of the nanomotion signal (cantilever deflection) after drug exposure: decrease in the variance after exposure to the drug is prominent
